Columns and labels:
Format in all cases: physicochemical
[1] = Competitive slurry and slurry stability experiments
Protocol: Form B was obtained at room temperature while form C was obtained at 45° C. in acetone alone.
(§1) The HBr salt was largely insoluble in various buffers when 1 mg/mL slurries were prepared and the mother liquor concentration determined (by HPLC): <0.05 mg/mL in all buffers tested.

[2] = Solubility of polymorphic forms in physiologically relevant media and final pH
Text: Solubility data of the several polymorphic forms of Compound 1 in physiologically relevant media and the final pH of these solutions are summarized in the following tables.

[3] = HBr salt solubility in buffers (1 mg/mL slurries, mother liquor by HPLC); settings: all buffers tested
Protocol: as §1

[4] = Dynamic vapor sorption / hygroscopicity
How it was run: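 Sample equilibrated at 50% r.h. on a microbalance, then one cycle at ±5% r.h. h^−1 spanning 0–95% r.h., with 5 h holds at 0% and 95% r.h. and 2 h holds at 50% r.h., run either desorption-first or sorption-first. Hygroscopicity classed from mass gain at 85% r.h. relative to initial mass.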

[5] = Solid state stability under accelerated storage conditions; settings: 40° C./75% RH, 80° C. and ambient light/temperature for 1 week
How it was run: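 Solid forms stored at 60 °C and 60 °C/75% RH (Form A 1 week, Form B 2 weeks); Form K held 14 d at 40 °C, 40 °C/75% RH, 60 °C, 60 °C/75% RH and light, versus refrigerated/ambient. Assessed by DSC/TGA, appearance, HPLC purity, chiral HPLC (S-isomer area %) and XRPD post-DVS.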

## Br.N#Cc1ccc(N2CCN(Cc3ccc(COc4cccc5c4CN([C@H]4CCC(=O)NC4=O)C5=O)cc3)CC2)c(F)c1
[1]; slurried in water for ~24 h
  disproportionation in water: did not appear to disproportionate back to the free base
[1]; various water activities
  slurry in acetone/water mixtures (XRPD): no hydrate formation evident
[2]; FaSSIF
  Solubility: <LOQ
[2]; FeSSiF
  Solubility: 0.111 mg/mL
[2]; SGF with pepsin
  Solubility: 0.077 mg/mL
[2]; Water, t0
  Solubility: 0.301(t0), mg/ml
[2]; Water, t24
  Solubility: 0.212 mg/mL
[2]; pH 1 buffer HC1/NaC1
  Solubility: 0.018 mg/mL
[2]; pH 3 buffer (phosphate)
  Solubility: 0.032 mg/mL
[2]; pH 4 buffer (acetate)
  Solubility: 0.038 mg/mL
[2]; pH 5 buffer (acetate)
  Solubility: 0.004 mg/mL
[2]; solubility sample in FaSSIF
  Final pH: 6.40
[2]; solubility sample in FeSSiF
  Final pH: 5.16
[2]; solubility sample in SGF with pepsin
  Final pH: 1.15
[2]; solubility sample in Water
  Final pH: 4.53
[2]; solubility sample in pH 1 buffer HC1/NaC1
  Final pH: 0.95
[2]; solubility sample in pH 3 buffer (phosphate)
  Final pH: 3.11
[2]; solubility sample in pH 4 buffer (acetate)
  Final pH: 4.18
[2]; solubility sample in pH 5 buffer (acetate)
  Final pH: 5.08
[3]
  mother liquor concentration in buffers: < 0.05 mg/mL
[4]; DVS, class by mass gain at 85% r.h.
  hygroscopicity: slightly hygroscopic (slightly hygroscopic (mass increase of <2% but ≥0.2%))
[4]; after the DVS humidity cycle
  solid form after DVS cycle: remains as Form A
[4]; relative humidity from about 0% to about 95%
  DVS mass increase: about 0.7%
[4]; relative humidity from about 5% to about 90%
  DVS mass increase: about 0.7%
[4]; up to 90% RH
  DVS mass increase: ~0.69%
[5]
  physical (XRPD) and chemical (HPLC) stability: both physically and chemically stable
